Literature values, collected in patent US6562363B1, “Bioadhesive compositions and methods for topical administration of active agents” (Noven Pharmaceuticals, Inc., priority 1997, dated 2003).

How the values were obtained:
[1] = application to skin or mucous membranes; for Duration of Effect: duration of anesthetic effect; for Peak Effect: time to peak anesthetic effect
[2] = application to skin or mucous membranes

| Compound | Duration of Effect [1] [min] | Peak Effect [1] [min] | Maximum Adult Dose [2] [mg] |
| --- | --- | --- | --- |
| CCOC(=O)c1ccc(N)cc1 [Benzocaine] | 30 to 60 | 1 | 5000 |
| COC(=O)[C@H]1[C@@H](OC(=O)c2ccccc2)C[C@@H]2CC[C@H]1N2C [Cocaine] |  |  | 50 |
| CCCCOc1cc(C(=O)NCCN(CC)CC)c2ccccc2n1 [Dibucaine] | 120 to 240 | <15 | 25 |
| CCCCOc1ccc(C(=O)CCN2CCCCC2)cc1 [Dyclonine] | <60 | <10 | 100 |
| CCN(CC)CC(=O)Nc1c(C)cccc1C [Lidocaine] |  |  | 750 |
| CCCCNc1ccc(C(=O)OCCN(C)C)cc1 [Tetracaine] | 30 to 60 | 3 to 8 | 50 |
